Measured values: patent US11292812B2, “3′3′-cyclic dinucleotides” (Institute of Organic Chemistry and Biochemistry, ASCR, V.V.I, priority 2018, dated 2022)

What was measured:
[1] = biological target: T1, AQ STING (G230A-R293Q) (Homo sapiens, UniProt Q86WV6, G230A/H232R/R293Q); experiment: Differential Scanning Fluorimetry with AQ STING; assay type: binding; conditions: thermal shift, truncated human AQ STING 0.1 mg/ml, 150 μM CDN; for ΔTm at 150 µM: read-out: DSF ΔTm AQ STING
T1 construct: truncated human WT STING or AQ STING (amino acid residues 140-343); 8xHis (N, cleaved yes); SUMO (N, cleaved yes); made in house; host or cells: E. coli Rosetta-gami B (DE3)
T1 sequence (Q86WV6 140-343 G230A/H232R/R293Q): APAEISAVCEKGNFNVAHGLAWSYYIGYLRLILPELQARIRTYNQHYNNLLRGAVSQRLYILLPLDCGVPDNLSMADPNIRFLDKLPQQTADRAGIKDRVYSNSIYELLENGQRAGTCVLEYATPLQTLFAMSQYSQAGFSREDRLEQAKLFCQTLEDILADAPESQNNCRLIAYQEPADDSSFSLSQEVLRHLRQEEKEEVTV
Protocol: (§1) Purified PCR products were cleaved with restriction enzymes BamHI (cat. #R0136S, NEB, Ipswich, USA) and NotI (cat. #R0189S, NEB, Ipswich, USA) and cloned into the pSUMO vector linearized with the identical enzymes.
(§2) DNase I (cat. #D5025, Sigma Aldrich, Czech Republic) and RNase A (cat. #R6513, Sigma Aldrich, Czech Republic) were added (final concentration 50 μg/ml) together with MgCl2 (final concentration 5 mmol·l^−1) to the homogenate and bacteria were lysed using French Press G-M™ High-Pressure Cell Press Homogenizer (1500 psi, 3 cycles). […] The resin was poured into a chromatography column, washed with 50 ml buffer A (50 mmol·l^−1 TrisCl (pH 8.0), 800 mmol·l^−1 NaCl, 3 mmol·l^−1 β-mercaptoethanol; 10% glycerol; 20 mmol·l^−1 imidazole) and 8-His-SUMO tagged STING proteins were eluted with 15 ml buffer A containing 300 mmol·l^−1 imidazole. […] Proteins were concentrated with Amicon® Ultra-15 10 K device (cat. #UFC901008, Merck Millipore, Billerica, USA) and flash frozen in liquid N2.
(§3) 20 μL solutions of the reaction mixtures were pipetted in triplicates into 96 well optical reaction plates and thermal denaturation of samples were performed on real time PCR cycler (LightCycler® 480 Instrument II—Roche, Basel, Switzerland). The first derivative of the thermal denaturation curves was performed to calculate denaturing temperatures of STING-CDN complexes and STING apoproteins. The thermal shift for each CDN was calculated by subtracting the average denaturing temperature of STING apoprotein from the average denaturing temperature of STING CDN complex.

[2] = biological target: T2, WT STING (Homo sapiens, UniProt Q86WV6, H232R); experiment: Digitonin assay using 293T wtSTING-FL reporter cells; assay type: cell-based; conditions: 293T wtSTING-FL cells, ISRE firefly luciferase reporter, digitonin buffer 30 minutes, then 5 hours
Excerpt: Two complementary oligonucleotides of the sequence […] […] […] […] […] […] […] The oligonucleotides were mixed in equal molar amounts, hybridized, and cleaved by restriction endonucleases HindIII (cat. #. R0104S, NEB, Ipswich, USA) and BglII (cat. #R0144S, NEB, Ipswich, USA). Ultimately, they were ligated into plasmid pGL4.27 (cat. #E6651, Promega, Madison, USA) linearized with the same enzymes. As result the sequence with four ISRE sites was placed upstream of the minimum promoter of firefly luciferase reporter gene.
After 5 minutes incubation at room temperature (RT), 250 μL of the mixture was added dropwise to the cells in one well. Cells were incubated 36 hours at 37° C. with 5% CO2, and then detached with 0.05% Trypsin and 0.22 g/L EDTA (both cat. #L0941, Biowest, Riverside, USA).
Transfected cells were seeded onto poly-D-lysine coated six well plates at density 50,000 cells per 1 cm^2 in DMEM medium with high glucose containing 10% heat inactivated FBS, 30 μg/mL blasticidin (cat. #ant-bl-05, InvivoGen, San Diego, USA), 0.06 mg/ml Penicillin G and 0.1 mg/ml Streptomycin Sulfate (both cat. #. L0018, Biowest, Riverside, USA). The medium was replenished every 3-4 days until visible colonies of cells resistant to blasticidin were formed.
Blasticidin resistant cells stably expressing WT STING were further transfected with pGL64.27-4×ISRE plasmid following the same procedure as described above. […] Homogeneous culture of stably double transfected cells was prepared by limiting dilution of cells in 96 well plates and wells with cells were selected that originated from a single cell.
The medium was removed next day and three fold serial dilutions of compounds in Digitonin buffer containing 50 mmol·l^−1 HEPES (cat. #H3375, Sigma Aldrich, Czech Republic) pH 7.0, 100 mmol·l^−1 KCl, 3 mmol·l^−1 MgCl2, 0.1 mmol·l^−1 DTT (cat. #D0632, Sigma Aldrich, Czech Republic), 85 mmol·l^−1 Sucrose (cat. #S7903, Sigma Aldrich, Česká Republika), 0.2% BSA (cat. #A2153, Sigma Aldrich, Czech Republic), 1 mmol·l^−1 ATP (cat. #A1852, Sigma Aldrich, Czech Republic), 0.1 mmol·l^−1 GTP (cat. #G8877, Sigma Aldrich, Czech Republic), and 10 μg/mL Digitonin A (cat. #D141, Sigma Aldrich, Czech Republic) were added to the cells. The buffer was removed after 30 minutes incubation at 37° C. with 5% CO2, the cells were washed once with 100 μl of cultivation medium, and 100 μl of medium was added to each well. The plates with cells were incubated for 5 hours at 37° C. with 5% CO2, 50 μl of the medium was removed and 30 μl of ONE-Glo™ Luciferase Assay System reagent (cat. #E6120, Promega, Madison, USA) was added to each well. Luminesce was read on Synergy H1 (Biotek, Winooski, USA).
Target sequence in this assay (Q86WV6 whole entry H232R): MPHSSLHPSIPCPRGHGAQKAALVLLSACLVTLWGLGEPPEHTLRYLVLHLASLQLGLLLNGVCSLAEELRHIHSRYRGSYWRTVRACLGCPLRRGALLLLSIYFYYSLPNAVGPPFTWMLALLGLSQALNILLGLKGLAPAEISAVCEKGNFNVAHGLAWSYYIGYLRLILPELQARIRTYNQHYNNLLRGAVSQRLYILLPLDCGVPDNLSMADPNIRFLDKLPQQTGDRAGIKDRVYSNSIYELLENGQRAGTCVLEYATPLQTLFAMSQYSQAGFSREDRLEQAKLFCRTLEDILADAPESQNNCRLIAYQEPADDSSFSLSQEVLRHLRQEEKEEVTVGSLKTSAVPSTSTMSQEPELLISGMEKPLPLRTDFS

[3] = biological target: T2, WT STING; experiment: Differential Scanning Fluorimetry with WT STING; assay type: binding; design: truncated human WT STING or AQ STING (amino acid residues 140-343); 8xHis (N, cleaved yes); SUMO (N, cleaved yes); made in house; host or cells: E. coli Rosetta-gami B (DE3); conditions: thermal shift, truncated human WT STING 0.1 mg/ml, 150 μM CDN; for ΔTm at 150 µM: read-out: DSF ΔTm WT STING
Protocol: as §1, §2, §3
Target sequence in this assay (Q86WV6 140-343 H232R): as the sequence (Q86WV6 140-343 G230A/H232R/R293Q) above, with A91G, Q154R counted along it

DSF ΔTm AQ STING [1] [°C] | EC50 [2] [nM] | DSF ΔTm WT STING [3] [°C] | ΔTm at 150 µM [1] [°C] | ΔTm at 150 µM [3] [°C] | Molecule
3.3 | 10400 | 0.1 | – | – | 2-amino-9-((2R,3R,3aS,7aR,9R,10R,10aS,15aR)-2-(6-amino-9H-purin-9-yl)-3,5,10,13-tetrahydroxy-5,13-dioxidodecahydro-2H-difuro[3,2-d:3′,2′-k][1,3,7,10]tetraoxa[2,8]diphosphacyclotridecin-9-yl)-1,9-dihydro-6H-purin-6-one [Example 2]
12.7 | 110 | 4.0 | – | – | 2-amino-9-((2R,3aS,7aR,9R,10R,10aR,15aR)-9-(6-amino-9H-purin-9-yl)-10-fluoro-5,13-dihydroxy-5,13-dioxidodecahydro-2H-difuro[3,2-d:3′,2′-k][1,3,7,10]tetraoxa[2,8]diphosphacyclotridecin-2-yl)-1,9-dihydro-6H-purin-6-one [Example 15]
19.4 | 30 | 11.5 | – | – | Nc1nc2c(ncn2[C@@H]2O[C@@H]3COP(=O)(O)O[C@@H]4[C@H](O)[C@@H](COP(=O)(O)O[C@@H]2[C@@H]3O)O[C@H]4n2cnc3c(N)ncnc32)c(=O)[nH]1 [2′2′-cGAMP, reference compound]
9.3 | 300 | 2.6 | – | – | Nc1ncnc2c1ncn2[C@@H]1O[C@@H]2COP(=O)(O)O[C@H]3[C@@H](O)[C@H](n4cnc5c(N)ncnc54)O[C@@H]3COP(=O)(O)O[C@H]2[C@H]1O [3′3′-c-di-AMP, reference compound]
7.7 | 5800 | 2.6 | – | – | Nc1nc2c(ncn2[C@@H]2O[C@@H]3COP(=O)(O)O[C@H]4[C@@H](O)[C@H](n5cnc6c(=O)[nH]c(N)nc65)O[C@@H]4COP(=O)(O)O[C@H]3[C@H]2O)c(=O)[nH]1 [3′3′-c-di-GMP, reference compound]
– | 12500 | – | 3.1 | 0 | Nc1nc2c(ncn2[C@@H]2O[C@@H]3COP(=O)(O)COC4C(O)[C@H](n5cnc6c(N)ncnc65)O[C@@H]4COP(=O)(O)OC3C2O)c(=O)[nH]1 (stereo partly drawn) [Example 3, 2-amino-9-((2R,3R,3aS,7aR,9R,10R,10aS,15aR)-9-(6-amino-9H-purin-9-yl)-3,5,10,13-tetrahydroxy-5,13-dioxidodecahydro-2H-difuro[3,2-d:3′,2′-k][1,3,7,10]tetraoxa[2,8]diphosphacyclotridecin-2-yl)-1,9-dihydro-6H-purin-6-one]
– | 50 | – | 13.6 | 4.8 | Nc1nc2c(ncn2[C@@H]2O[C@@H]3COP(=O)(O)OC4C(F)[C@H](n5cnc6c(N)ncnc65)O[C@@H]4COP(=O)(O)COC3C2O)c(=O)[nH]1 (stereo partly drawn) [Example 4, 2-amino-9-((2R,3R,3aR,7aR,9R,10R,10aS,15aR)-2-(6-amino-9H-purin-9-yl)-3-fluoro-5,10,13-trihydroxy-5,13-dioxidodecahydro-2H-difuro[3,2-d:3′,2′-k][1,3,7,10]tetraoxa[2,8]diphosphacyclotridecin-9-yl)-1,9-dihydro-6H-purin-6-one]
– | 100 | – | 12 | 4.1 | Nc1nc2c(ncn2[C@@H]2O[C@@H]3COP(=O)(O)COC4C(O)[C@H](n5cnc6c(N)ncnc65)O[C@@H]4COP(=O)(O)OC3C2F)c(=O)[nH]1 (stereo partly drawn) [Example 5, 2-amino-9-((2R,3R,3aR,7aR,9R,10R,10aS,15aR)-9-(6-amino-9H-purin-9-yl)-3-fluoro-5,10,13-trihydroxy-5,13-dioxidodecahydro-2H-difuro[3,2-d:3′,2′-k][1,3,7,10]tetraoxa[2,8]diphosphacyclotridecin-2-yl)-1,9-dihydro-6H-purin-6-one]
– | > 50000 | – | 0 | 0.1 | Nc1nc2c(ncn2[C@@H]2O[C@@H]3COP(=O)(O)COC4C(O)[C@H](n5cnc6c(=O)[nH]c(N)nc65)O[C@@H]4COP(=O)(O)COC3C2O)c(=O)[nH]1 (stereo partly drawn) [Example 6, 9,9′-((2R,3R,3aS,8aR,10R,11R,11aS,16aR)-3,6,11,14-tetrahydroxy-6,14-dioxidododecahydrodifuro[3,2-e:3′,2′-l][1,4,8,11]tetraoxa[2,9]diphosphacyclotetradecine-2,10-diyl)bis(2-amino-1,9-dihydro-6H-purin-6-one)]
– | 30 | – | 15 | 5.6 | Nc1nc2c(ncn2[C@@H]2O[C@@H]3COP(=O)(O)COC4C(F)[C@H](n5cnc6c(N)ncnc65)O[C@@H]4COP(=O)(O)OC3C2O)c(=O)[nH]1 (stereo partly drawn) [Example 7, 2-amino-9-((2R,3R,3aS,7aR,9R,10R,10aR,15aR)-9-(6-amino-9H-purin-9-yl)-10-fluoro-3,5,13-trihydroxy-5,13-dioxidodecahydro-2H-difuro[3,2-d:3′,2′-k][1,3,7,10]tetraoxa[2,8]diphosphacyclotridecin-2-yl)-1,9-dihydro-6H-purin-6-one]
– | 8 | – | 18.6 | 10.7 | Nc1nc2c(ncn2[C@@H]2O[C@@H]3COP(=O)(O)COC4C(F)[C@H](n5cnc6c(N)ncnc65)O[C@@H]4COP(=O)(O)OC3C2F)c(=O)[nH]1 (stereo partly drawn) [Example 8, 2-amino-9-((2R,3R,3aR,7aR,9R,10R,10aR,15aR)-9-(6-amino-9H-purin-9-yl)-3,10-difluoro-5,13-dihydrox-5,13-diox-idodecahdro-2H-difuro[3,2-d:3′,2′-k][1,3,7,10]tetraoxa[2,8]diphosphacyclotridecin-2-yl)-1,9-dihydro-6H-purin-6-one]
0.1 | > 100000 | 0.1 | – | – | Nc1ncnc2c1ncn2[C@@H]1O[C@@H]2COP(=O)(O)COC3C(O)[C@H](n4cnc5c(N)ncnc54)O[C@@H]3COP(=O)(O)COC2C1O (stereo partly drawn) [Example 9, (2R,3S,3aS,8aR,10R,11S,11aS,16aR)-2,10-bis(6-amino-9H-purin-9-yl)-3,6,11,14-tetrahydroxvdodecahydrodifuro[3,2-e:3′,2′-l][1,4,8,11]tetraoxa[2,9]diphosphacyclotetradecine 6,14-dioxide]
